Test results taken from patent publication US20030099944A1, “Combination therapy involving drugs which target cellular proteins and drugs which target pathogen-encoded proteins” (priority 1998, published 2003).
Where two headings read alike, the source gives them in different places.

Experiments:
[1] = system: HSV-1 strain KOS; test: HSV-1 replication in HEL cells, standard plaque assay; format: cell-based, herpes simplex virus type 1; settings: 24 hours, 40 μM Rosco, 75 μM iso-Olo, 20 μM Lova, 5 ng/ml staurosporine, 70 μM PD98059
[2] = system: HSV-1 DNA replication; format: cell-based, herpes simplex virus type 1; settings: for fold viral DNA replication after release from PAA block: 50 μg/ml CHX alone
[3] = system: HEL cells
[4] = system: HEL cells; test: Cell-cycle progression by FACS analysis, HEL cells; format: cell-based
[5] = system: ICP0 promoter (pWRICP0-CAT); format: cell-based, herpes simplex virus type 1; settings: for effect on virion-induced IE gene expression: cultures treated 24 hours prior to infection; for Fold-induction of CAT activity: mock-infected, value (SEM)
[6] = system: HSV ts A15; format: cell-based, herpes simplex virus type 1
[7] = system: HSV-1 strain KOS; test: HSV-1 replication in Vero cells, standard plaque assay; format: cell-based, herpes simplex virus type 1; settings: 0.1 to 10 PFU/cell, 100 μg/ml PAA or 100 μM Rosco, 24 hours
[8] = system: HSV ts A15 transcripts and proteins; test: E and L gene expression of ts A15 after shift-down (RNase protection, metabolic labeling); format: cell-based, herpes simplex virus type 1
[9] = system: HSV-1 strain KOS; format: cell-based, herpes simplex virus type 1; settings: passage 11, 100 μg/ml PAA
[10] = system: Vero cells; test: Toxicity by microscopic observation, Vero cells
[11] = 3 hours pi, 100 μM Roscovitine, 10 μM Lovastatin, 250 μM K252a
[12] = 400 μg/ml PAA or 100 μM Rosco, 16 or 24 hours post release

## Cn1cnc2nc(NCCO)nc(NCc3ccccc3)c21 [Iso-Olo, IsoOlomoucine]
[1]
  effect on HSV replication, single-cycle growth: no detectable effect

## CN[C@@H]1C[C@H]2O[C@@](C)([C@@H]1OC)n1c3ccccc3c3c4c(c5c6ccccc6n2c5c31)C(=O)NC4 [Staurosporine]
[1]
  effect on HSV replication, single-cycle growth: did not block HSV replication significantly

## C[C@@H]1C[C@@H]([C@H](O)CC2CC(=O)NC(=O)C2)C(=O)[C@@H](C)C1 [CHX, Cycloheximide]
[2]; by 20 hours post release
  fold viral DNA replication after release from PAA block: approximately 12 fold
[2]; first 12 hours post-release
  fold viral DNA replication after release from PAA block: approximately 6 fold

## COc1cccc(-c2cc(=O)c3ccccc3o2)c1N [PD98059]
[3]
  concentrations with obvious cytotoxic effects: higher than 70 μM
[1]
  effect on HSV replication, single-cycle growth: did not inhibit HSV replication

## CC[C@H](C)C(=O)O[C@H]1C[C@@H](C)C=C2C=C[C@H](C)[C@H](CC[C@@H]3C[C@@H](O)CC(=O)O3)[C@H]21 [Lova, Lovastatin]
[4]; 5 μM Lova
  cells blocked in G0/G1: ~90%
[4]; 20 μM Lova
  cells arrested in G0/G1: about 90%
[5]
  effect on virion-induced IE gene expression: no effect
[5]; [11]
  Fold-induction of CAT activity: 1.1 (0.6) fold
[5]; 6 hours pi
  Fold-induction of CAT activity: 1.0 (0.5) fold
[5]; 9 hours pi
  Fold-induction of CAT activity: 1.2 (0.6) fold
[1]
  effect on HSV replication, single-cycle growth: failed to block HSV replication

## O=C(O)CP(=O)(O)O [PAA, phosphonoacetic acid]
[6]; 100 μg/ml PAA or 100 μM Rosco, 24 hours after shift-down
  level of viral DNA relative to cells infected and maintained at the permissive temperature: about 35%
[6]; 100 μg/ml PAA or 100 μM Rosco, by 24 hours after shift-down
  fold viral DNA replication: ~50 fold
[6]; 100 μg/ml PAA, first 15 hours after shift-down
  fold viral DNA replication: about 5 fold
[6]; 400 μg/ml PAA
  viral DNA replication during 24 hours after release: totally inhibited
[2]
  fold viral DNA replication within 20 hours after release from PAA block: approximately 7 fold
[7]
  inhibition of HSV replication as a function of multiplicity: efficiently at multiplicities of 1 PFU/cell or lower
[8]; 100 μg/ml PAA, 16 hours after shift-down
  accumulation of ICP8 and TK transcripts: did not significantly alter
[8]; [12]
  accumulation of L proteins: significant inhibition
  levels of E proteins, including ICP8 and TK: without a major effect
[8]; 400 μg/ml PAA or 100 μM Rosco, 16 hours after shift-down
  steady-state levels of ICP8 and TK transcripts: slight increase
[9]
  titers in the presence of drug relative to titers in absence of drug: approximately 50%

## Cn1cnc2c(NCc3ccccc3)nc(NCCO)nc21 [Olo, Olomoucine]
[10]
  concentration tolerated without evidence of toxicity: 200 µM

## COC(=O)[C@@]1(O)C[C@H]2O[C@]1(C)n1c3ccccc3c3c4c(c5c6ccccc6n2c5c31)C(=O)NC4 [K252a]
[5]
  effect on virion-induced IE gene expression: no effect
[5]; [11]
  Fold-induction of CAT activity: 0.8 (0.4) fold
[5]; 6 hours pi
  Fold-induction of CAT activity: 1.1 (0.3) fold
[5]; 9 hours pi
  Fold-induction of CAT activity: 1.0 (0.3) fold
